Experimental data as given in ChEMBL document CHEMBL4011635 (J Med Chem, 2017).
≈ marks a conversion by molar mass, not a printed value. Calls of active or inactive are those of the source. The calls are words filed in the database; no cut-off is given here.

Tests used:
[1] = Apparent permeability from basolateral to apical side in human Caco2 cells; assay type: ADME, cell-based; conditions: Caco-2
in vitro = conditions: human, Caco-2
[2] = Protein binding in human plasma; assay type: ADME, cell-free; conditions: read-out: PPB (converted)
[3] = Aqueous equilibrium solubility of compound in pH 6.8 solution by high throughput assay; assay type: physicochemical; conditions: aqueous pH 6.8 solution
Cynomolgus monkey [4] = assay: In vivo inhibition of complement factor D in cynomolgus monkey assessed as decrease in zymosan-induced AP activation by measuring soluble MAC complex deposition in serum at 10 to 50 mg/kg, po administered as single dose via gavage measured 4 hrs post dose; assay type: functional, organism-based; conditions: Macaca fascicularis
Cytochrome P450 2C9 = Cytochrome P450 2C9 (Homo sapiens, UniProt P11712)
Cytochrome P450 3A4 = Cytochrome P450 3A4 (Homo sapiens, UniProt P08684)
Mus musculus [5] = assay: In vivo inhibition of Ba generation in plasma of B6-Cfdtm1.1(CFD)Npa mouse at 30 mg/kg, po administered via gavage treated up to 24 hrs prior to test and LPS challenge up to 7.5 hrs prior to test measured up to 8 hrs; assay type: functional, organism-based
[6] = Drug uptake in Brown Norway rat plasma at 10 mg/kg, po administered as single dose via gavage after 6 hrs by HPLC-MS/MS analysis; assay type: ADME, organism-based
Cynomolgus monkey [7] = assay: In vivo inhibition of complement factor D in cynomolgus monkey assessed as serum concentration required to show complete reduction in zymosan-induced AP activation by measuring soluble MAC complex deposition at 10 to 50 mg/kg, po administered as single dose via gavage measured at 4 to 24 hrs post dose by LC-MS analysis; assay type: functional, Macaca fascicularis
[8] = Drug uptake in Brown Norway rat neural retina at 10 mg/kg, po administered as single dose via gavage after 6 hrs by LC-MS/MS analysis; assay type: ADME, organism-based; conditions: read-out: Drug uptake
[9] = target: Voltage-gated inwardly rectifying potassium channel KCNH2 (Homo sapiens, UniProt Q12809)
Lymphocyte = assay: Genotoxicity in human primary lymphocytes by micronucleus test; assay type: toxicity, cell-based
Cynomolgus monkey [10] = assay: In vivo inhibition of complement factor D in cynomolgus monkey assessed as decrease in zymosan-induced AP activation by measuring soluble MAC complex deposition in serum administered as single dose via oral gavage measured at 4 to 24 hrs post dose; assay type: functional, organism-based; conditions: Macaca fascicularis
[11] = Drug uptake in Brown Norway rat posterior eye cup at 10 mg/kg, po administered as single dose via gavage after 6 hrs by LC-MS/MS analysis; assay type: ADME, organism-based; conditions: read-out: Drug uptake
Mus musculus [12] = assay: In vivo inhibition of complement activation in B6-Cfdtm1.1(CFD)Npa mouse assessed as decrease iC3b generation in eyes at 30 mg/kg, po administered via gavage treated up to 24 hrs prior to test and LPS challenge up to 7.5 hrs prior to test measured up to 12 hrs; assay type: functional, organism-based
Salmonella typhimurium = assay: Genotoxicity in Salmonella typhimurium by Ames test; assay type: toxicity; conditions: salmonella enterica subsp. enterica serovar typhimurium
Mus musculus [13] = assay: In vivo inhibition of complement activation in B6-Cfdtm1.1(CFD)Npa mouse assessed as decrease C3d generation in eyes at 30 mg/kg, po administered via gavage treated up to 24 hrs prior to test and LPS challenge up to 7.5 hrs prior to test measured up to 12 hrs; assay type: functional, organism-based
Cytochrome P450 2D6 = Cytochrome P450 2D6 (Homo sapiens, UniProt P10635)
[14] = Terminal half life in Sprague-Dawley rat at 1 mg/kg, iv administered as bolus dose by LC-MS/MS analysis; assay type: ADME, organism-based; conditions: in vivo, read-out: beta t1/2 (converted)
[15] = Clearance in Sprague-Dawley rat at 1 mg/kg, iv administered as bolus dose by LC-MS/MS analysis; assay type: ADME, organism-based; conditions: in vivo
[16] = Cmax in Sprague-Dawley rat plasma at 10 mg/kg, po by LC-MS/MS analysis; assay type: ADME, organism-based; design: dose 10 mg/kg, route oral
[17] = AUC (0 to 8 hrs) in Sprague-Dawley rat plasma at 10 mg/kg, po by LC-MS/MS analysis; assay type: ADME, organism-based; design: dose 10 mg/kg, time < 8 hr, route oral
[18] = Oral bioavailability in Sprague-Dawley rat at 10 mg/kg by LC-MS/MS analysis; assay type: ADME, organism-based; conditions: in vivo
Complement factor D = Complement factor D (Homo sapiens, UniProt P00746); assay: Inhibition of recombinant human complement factor D catalytic domain (G24 to A253 residues) expressed in expressed in Escherichia coli(Rosetta) using Z-Lys-thiobenzylester as substrate preincubated for 1 hr followed by substrate addition by 2,4-dinitrobenzenesulfonyl-2,7-desmethyl-fluorecein probe based spectrofluorimetric assay

Compound	Papp B→A [1]	Papp A→B (in vitro)	fraction unbound [2]	solubility thermodynamic [3]	other results
NC(=O)n1cc(NC(=O)N2[C@@H]3C[C@@H]3C[C@H]2C(=O)Nc2cccc(C(F)(F)F)n2)c2ccccc21	14.2 ×10⁻⁶ cm/s	11.3 ×10⁻⁶ cm/s	0.048	110 µM (≈ 52 µg/mL)	
NC(=O)n1cc(NC(=O)N2[C@@H]3C[C@@H]3C[C@H]2C(=O)Nc2cccc(OC(F)(F)F)c2F)c2ccccc21	6.5 ×10⁻⁶ cm/s	5.1 ×10⁻⁶ cm/s		10 µM (≈ 5.05 µg/mL)	
NC(=O)c1cn(CC(=O)N2[C@@H]3C[C@@H]3C[C@H]2C(=O)Nc2cccc(Br)n2)c2ccccc12			0.131		
NC(=O)n1cc(NC(=O)N2C[C@@H](O)C[C@H]2C(=O)Nc2cccc(OC(F)(F)F)c2)c2ccccc21	17 ×10⁻⁶ cm/s	0.77 ×10⁻⁶ cm/s		23 µM (≈ 11.3 µg/mL)	
NC(=O)c1nn(CC(=O)N2[C@@H]3C[C@@H]3C[C@H]2C(=O)Nc2cccc(Br)n2)c2ccccc12	18.1 ×10⁻⁶ cm/s	15.3 ×10⁻⁶ cm/s	0.08	170 µM (≈ 82.2 µg/mL)	inhibition (Cynomolgus monkey [4]): Active; IC50 (Cytochrome P450 2C9): > 20 µM; IC50 (Cytochrome P450 3A4): 17 µM; inhibition (Mus musculus [5]): Active; concentration at 6 h [6]: 360 nM; INH (Cynomolgus monkey [7]): >0.5 µM; concentration at 6 h [8]: 90 nM; IC50 [9]: > 30 µM; Activity (Lymphocyte): Non-Toxic; EC50 (Cynomolgus monkey [10]): 0.038 µM; concentration at 6 h [11]: 430 nM; inhibition (Mus musculus [12]): Active; Activity (Salmonella typhimurium): Non-Toxic; inhibition (Mus musculus [13]): Active; IC50 (Cytochrome P450 2D6): > 20 µM
NC(=O)n1cc(NC(=O)N2CCC[C@H]2C(=O)Nc2cccc(OC(F)(F)F)c2)c2ccccc21	6.3 ×10⁻⁶ cm/s	6.1 ×10⁻⁶ cm/s		17 µM (≈ 8.08 µg/mL)	half-life [14]: 1.4 h; clearance [15]: 21 mL/min/kg; Cmax [16]: 1170 nM; AUC(0-t) at 8 h [17]: 4.99 µM·h; bioavailability [18]: 25%; Activity (Lymphocyte): Non-Toxic; Activity (Salmonella typhimurium): Non-Toxic
NC(=O)n1cc(NC(=O)N2[C@@H]3C[C@@H]3C[C@H]2C(=O)Nc2cccc(C(F)(F)F)c2F)c2ccccc21	7 ×10⁻⁶ cm/s	10 ×10⁻⁶ cm/s	< 0.01	46 µM (≈ 22.5 µg/mL)	
NC(=O)n1cc(NC(=O)N2[C@@H]3C[C@@H]3C[C@H]2C(=O)Nc2cccc(OC(F)(F)F)c2)c2ccccc21	5.7 ×10⁻⁶ cm/s	4.5 ×10⁻⁶ cm/s		77 µM (≈ 37.5 µg/mL)	
NC(=O)n1cc(NC(=O)N2[C@@H]3C[C@@H]3C[C@H]2C(=O)Nc2cccc(Br)n2)c2ccccc21	10.3 ×10⁻⁶ cm/s	9.6 ×10⁻⁶ cm/s	0.036	57 µM (≈ 27.5 µg/mL)	
NC(=O)n1cc(NC(=O)N2C[C@H](F)C[C@H]2C(=O)Nc2cccc(OC(F)(F)F)c2)c2ccccc21	8 ×10⁻⁶ cm/s	0.75 ×10⁻⁶ cm/s		7 µM (≈ 3.45 µg/mL)	
NC(=O)n1cc(NC(=O)N2C[C@@H](N)C[C@H]2C(=O)Nc2cccc(OC(F)(F)F)c2)c2ccccc21	5.1 ×10⁻⁶ cm/s	2.1 ×10⁻⁶ cm/s		280 µM (≈ 137 µg/mL)	
Cn1cc(NC(=O)N2CCC[C@H]2C(=O)Nc2cccc(OC(F)(F)F)c2)c2ccccc21					IC50 (Complement factor D): 20 µM
